Converted amounts (≈) assume the structure as drawn. Read-outs that look alike come from different tables or passages of the source.
Assays:
B. vulgatus 1446 = experiment: MIC against B. vulgatus 1446; format: cell-based; settings: Phocaeicola vulgatus, anaerobic
B. fragilis 312 = experiment: MIC against B. fragilis 312; format: cell-based; settings: Bacteroides fragilis, anaerobic
B. fragilis 960 = experiment: MIC against B. fragilis 960; format: cell-based; settings: Bacteroides fragilis, anaerobic
B. distasonis 1366 = experiment: MIC against B. distasonis 1366; format: cell-based; settings: Parabacteroides distasonis
Ent. cl. P99 = experiment: MIC against Ent. cl. P99; format: cell-based; settings: clinical isolate resistant to the cephalosporin
Staph. 503 = experiment: MIC against Staph. 503; format: cell-based
Ent. cl. M. 447 = experiment: MIC against Ent. cl. M. 447
Ent. cl. M 423 = experiment: MIC against Ent. cl. M 423; format: cell-based; settings: clinical isolate resistant to the cephalosporin
Strept. faecium D = experiment: MIC against Strept. faecium D; format: cell-based; settings: Enterococcus faecium, clinical isolate resistant to the cephalosporin
Strept. D 26777 = experiment: MIC against Strept. D 26777; format: cell-based
E. coli 2139E = experiment: MIC against E. coli 2139E; format: cell-based; settings: Escherichia coli
Staph. 285 = experiment: MIC against Staph. 285; format: cell-based
Cl. tetani 19406 = experiment: microbe, parasite or virus in culture; format: cell-based; settings: Clostridium tetani
B. thetaiotaomicron 123 = experiment: MIC against B. thetaiotaomicron 123; format: cell-based; settings: Bacteroides thetaiotaomicron, anaerobic
Strept. D 21777 = experiment: MIC against Strept. D 21777; format: cell-based
Citrob. 82 Cull. = experiment: MIC against Citrob. 82 Cull.; format: cell-based
Ent. cl. 2240 Cull. = experiment: MIC against Ent. cl. 2240 Cull.; format: cell-based
Sph. varius 5262 = experiment: MIC against Sph. varius 5262; format: cell-based; settings: Fusobacterium varium, anaerobic
B. fragilis 18125 = experiment: MIC against B. fragilis 18125; format: cell-based; settings: Bacteroides fragilis, anaerobic
Staph. 789 = experiment: MIC against Staph. 789; format: cell-based; settings: clinical isolate resistant to the cephalosporin
Citrob. 2901 = experiment: MIC against Citrob. 2901
Kl. aerog. 1082E = experiment: MIC against Kl. aerog. 1082E; format: cell-based
Staph. 22130 = experiment: MIC against Staph. 22130; format: cell-based; settings: clinical isolate resistant to the cephalosporin
B. fragilis 17390 = experiment: MIC against B. fragilis 17390; format: cell-based; settings: Bacteroides fragilis, anaerobic
Kl. pneu. 1976E = experiment: MIC against Kl. pneu. 1976E; format: cell-based
Staph. SG 511 = experiment: MIC against Staph. SG 511; format: cell-based
B. ovatus 103 = experiment: MIC against B. ovatus 103; format: cell-based; settings: Bacteroides ovatus, anaerobic

CC(O)C1C(=O)N2C(C(=O)O)=C(Oc3ccc(C(N)=O)cc3)SC12 (stereo not drawn) [(1), sodium 5R,6S-6-(1R-hydroxyethyl)-3-(4-carbamoyl-phenoxy)-7-oxo-4-thia-1-azabicyclo[3.2.0]hept-2-ene-2-carboxylate]
MIC (B. vulgatus 1446): 0.125 µg/mL | MIC (B. fragilis 312): 0.125 µg/mL | MIC (B. fragilis 960): 0.125 µg/mL | MIC (B. distasonis 1366; B. distasonis 1366, read-out: MIC): 0.25 µg/mL | MIC (Ent. cl. P99): 2 µg/mL | MIC (Staph. 503): 0.062 µg/mL | MIC (Ent. cl. M. 447): 16 µg/mL | MIC (Ent. cl. M 423): 4 µg/mL | MIC (Strept. faecium D): 8 µg/mL | MIC (Strept. D 26777): 8 µg/mL | MIC (E. coli 2139E): 1 µg/mL | MIC (Staph. 285): 0.062 µg/mL | MIC (Cl. tetani 19406): 0.25 µg/mL | MIC (B. thetaiotaomicron 123): 0.125 µg/mL | MIC (Strept. D 21777): 8 µg/mL | MIC (Citrob. 82 Cull.): 1 µg/mL | MIC (Ent. cl. 2240 Cull.): 2 µg/mL | MIC (Sph. varius 5262): 0.25 µg/mL | MIC (B. fragilis 18125): 0.25 µg/mL | MIC (Staph. 789): 4 µg/mL | MIC (Citrob. 2901): 8 µg/mL | MIC (Kl. aerog. 1082E): 0.5 µg/mL | MIC (Staph. 22130): 2 µg/mL | MIC (B. fragilis 17390): 0.25 µg/mL | MIC (Kl. pneu. 1976E): 1 µg/mL | MIC (Staph. SG 511): 0.062 µg/mL | MIC (B. ovatus 103): 0.125 µg/mL

CO/N=C(\C(=O)N[C@@H]1C(=O)N2C(C(=O)O)=C(COC(C)=O)CS[C@H]12)c1csc(N)n1 [(2)]
MIC (B. vulgatus 1446): 64 µg/mL (≈ 141 µM) | MIC (B. fragilis 312): 128 µg/mL (≈ 281 µM) | MIC (B. fragilis 960): 16 µg/mL (≈ 35.1 µM) | MIC (B. distasonis 1366; 1366): 0.125 µg/mL (≈ 0.274 µM) | MIC (Ent. cl. P99): 64 µg/mL (≈ 141 µM) | MIC (Staph. 503): 2 µg/mL (≈ 4.39 µM) | MIC (Ent. cl. M. 447): 64 µg/mL (≈ 141 µM) | MIC (Ent. cl. M 423): 64 µg/mL (≈ 141 µM) | MIC (Strept. faecium D): 64 µg/mL (≈ 141 µM) | MIC (Strept. D 26777): 64 µg/mL (≈ 141 µM) | MIC (E. coli 2139E): 0.031 µg/mL (≈ 0.0681 µM) | MIC (Staph. 285): 2 µg/mL (≈ 4.39 µM) | MIC (Cl. tetani 19406): 8 µg/mL (≈ 17.6 µM) | MIC (B. thetaiotaomicron 123): 64 µg/mL (≈ 141 µM) | MIC (Strept. D 21777): 64 µg/mL (≈ 141 µM) | MIC (Citrob. 82 Cull.): 2 µg/mL (≈ 4.39 µM) | MIC (Ent. cl. 2240 Cull.): 0.062 µg/mL (≈ 0.136 µM) | MIC (Sph. varius 5262): 64 µg/mL (≈ 141 µM) | MIC (B. fragilis 18125): 2 µg/mL (≈ 4.39 µM) | MIC (Staph. 789): 64 µg/mL (≈ 141 µM) | MIC (Citrob. 2901): 64 µg/mL (≈ 141 µM) | MIC (Kl. aerog. 1082E): 1 µg/mL (≈ 2.2 µM) | MIC (Staph. 22130): 32 µg/mL (≈ 70.3 µM) | MIC (B. fragilis 17390): 8 µg/mL (≈ 17.6 µM) | MIC (Kl. pneu. 1976E): 0.062 µg/mL (≈ 0.136 µM) | MIC (Staph. SG 511): 2 µg/mL (≈ 4.39 µM) | MIC (B. ovatus 103): 64 µg/mL (≈ 141 µM)
